Data set [1] has as its system eIF4A-dependent translation. Briefly: in vitro translation assay, bicistronic FF/HCV/Ren reporter mRNA in Krebs-2 extracts. In kind it is biochemical. Particulars: screen at 2 μM compound. How it is done:
Structure-Activity Relationships. With a number of amidino-rocaglates and amino-rocaglates in hand, we evaluated their inhibition of eIF4A-dependent translation using an in vitro assay as depicted in FIG. 14, where a bicistronic reporter mRNA was designed for translation in Krebs-2 extracts. In FIG. 14 the following description applies (a) IC50 was determined from fitted sigmoid curves; […] indicates the concentration of compound that inhibits cap-dependent translation by 50%, which was normalized by cap-independent translation. For its determination, the bicistronic reporter FF/HCV/Ren mRNA was used to produce Firefly luciferase (cap-dependent) and Renilla luciferase (cap-independent) in Krebs-2 extracts in the presence of indicated compounds at various concentrations. In particular, translation of Firefly luciferase (FF) is cap-dependent and depends on eIF4A activity; in contrast, translation of Renilla luciferase (REN) utilizes the HCV internal ribosome entry site (IRES) which functions independently of eIF4A. IC50's were determined by the inhibition of FF relative to REN obtained in the presence of compound relative to vehicle controls and normalized to REN as an internal control. […] In accordance with the eIF4A-RNA-rocaglamide (2) co-crystallographic analysis (FIG. 4), the amide carbonyl of 2 interacts with Gln195 of eIF4A as a H-bond acceptor, while the tertiary hydroxyl of 2 serves as a H-bond donor to an RNA base. […] To further verify the hypothesis, amidino-rocaglates (pKa of N—H˜26.7-30.7 in DMSO, strong H-bond donors) and amino-rocaglates (pKa of N—H˜36 to 44 in DMSO, weak H-bond donors) were next evaluated. […] Conversely, benzyl amidine 9e had IC50=60 nM, whereas the methylene tether may allow conformational adjustment to avoid rigid repulsion in the binding pocket.
The rocaglate collection was also tested in in vitro translation assays using cell-free extracts with a previously described bicistronic mRNA containing the HCV IRES, which is not dependent on eIF4A activity and served as an internal control (FIG. 19C).
In Vitro Translation Assays. In vitro translation assays performed in Krebs-2 cell extracts were supplemented with 5 mM MgCl2, 30 mM Tris-HCl (pH 7.5), 1.5 mM ATP, 0.1 mM GTP, 0.6 mM CTP, 10 mM dipotassium creatine phosphate, 80 μg/mL creatine kinase, and 0.04 mM amino acids. The specified mRNA reporters were added to each reaction at a final concentration of 10 ng/μL. The translation reactions were incubated with or without compound for 60 minutes at 30° C. prior to the measurement of luciferase activities.
FIGS. 19A-19C. Rocaglate activity profiling. 19A. Assessing eIF4A1:poly r(AG)8 (SEQ ID NO: 2) RNA binding by FP in the presence of 10 μM rocaglate. Values are expressed relative to vehicle controls and data is rank ordered. n=3±SD. 19B. The change in polarization obtained with eIF4A1:poly r(AG)8 (SEQ ID NO: 2) and eIF4A2:poly r(AG)8 (SEQ ID NO: 2) RNA. Pearson r=0.814; p<0.0001. 19C. Inhibition of cap-dependent translation by rocaglates was measured using the indicated mRNA bicistronic reporter (4 ng/ul) in Krebs-2 extracts at a final compound concentration of 2 μM. n=3±SD.
FIG. 35A-35E are plots showing dose-response curve of FF-HCV-Ren mRNA translation in Krebs extracts with IC50s shown for inhibition of cap-dependent protein synthesis. Values are plotted relative to DMSO controls. n=2 technical replicates performed in duplicate.

For the next data set, the system named is NIH/3T3 cells. The experiment in a line: Sulforhodamine B (SRB) cytotoxicity assay. Type of data set: cell-based. The conditions noted are these: 40 nM, 4 days. Here is the method: In cellula activity of rocaglates. All compounds in the rocaglate collection were assessed for cytotoxic activity towards NIH/3T3 cells as well as the rocaglate-resistant line, eIF4A^em1JP, which harbors an F163L mutation in eIF4A1. This mutation was originally identified following selection for RocA-resistant yeast mutants and F163 was subsequently shown to be critical for stacking with ring C of RocA (2) (FIG. 4). Although eIF4A2 is also a target of rocaglates, eIF4A1 F163L is sufficient to confer resistance to rocaglate-induced translation inhibition and cytotoxicity, likely due to eIF4A1 being the more abundant isoform in NIH/3T3 cells (250-fold higher). […] Lastly, although effective at inhibiting cap-dependent translation in vitro, WGD-57-591 (no activity @ 40 nM) and WGD-57-590 (12% growth inhibition @ 40 nM) performed poorly in this assay.
Sulforhodamine B (SRB) assay. NIH/3T3 cells were seeded at a density of 1000 cells/well in a 96 well format and incubated in presence of each 40 nM compound. After 4 days of culture, cells were washed with PBS, fixed with 50% trichloroacetic (TCA) acid for 1 hour, and then stained with 0.5% sulforhodamine B in 1% acetic acid for 15 min. Plates were then washed 5 times with 1% acetic acid, dried, and the stained wells were resuspended with 10 mM Tris (pH 9) prior to measuring the absorbance at 510 nm using (Spectramax M5, Molecular Devices)
FIGS. 26A-26B. In cellula activity of rocaglates. 26A. Cytotoxicity of rocaglates towards NIH/3T3 (grey circle) and the NIH/3T3 rocaglate-resistant line, eIF4A^em1JP(redtriangle). Cells were exposed to 40 nM compound for 4 days and viability was measured using the SRB assay. n=3±SD. 26B. Rocaglates show different sequence preferences for inhibiting cap-dependent translation in cellula. HEK 293 cells were transfected with 0.5 μg of in vitro synthesized capped (AG)10-FF/HCV/Ren or (UC)10-FF/HCV/Ren mRNA and 1h later exposed to the indicated concentrations of compounds for an additional 6 h, at which time extracts were prepared and luciferase activity measured. n=3 SD.
For orientation: Sulforhodamine B stains cellular protein and so reports cell mass.

In data set [2] the test system is MDA-MB-231 breast cancer cells. Briefly: SRB cell viability assay. Particulars: MDA-MB-231, SRB assay; read-out: IC50, cytotoxicity. In kind it is cell-based. The source says: Translation Inhibition by Amidino-Rocaglates Induces Cytotoxicity. We next evaluated amidino-rocaglates in an SRB cell viability assay using MDA-MB-231 breast cancer cells for cellular readout of translation inhibition (FIG. 16). In particular, (−)-9b, (−)-9aa, and (+)-9aa were compared with rocaglate hydroxamate (−)-23. […] The inspiring high-potency of amidino-rocaglates underscores their utility as promising agents for anticancer treatment combined with the appropriate formulation and drug-delivery strategies. […] Meanwhile, amide carbonyls of 9z and 9aa served as H-bond acceptors likely improving interactions with Gln195 of eIF4A, although this awaits structural confirmation. […] Our studies further illustrate the power of chemical synthesis enabling structural and biological improvement of complex natural products using targeted modifications. Additional biological studies of amidino-, amino-rocaglates, and related compounds including RNA binding studies are currently in progress and will be reported in due course.

pIC50: −log10 of the molar value.

As for `COC(=O)[C@@H]1[C@@H](c2ccccc2)[C@]2(c3ccc(OC)cc3)Oc3cc(OC)cc(OC)c3[C@@]23NC(C2CC2)=N[C@@]13O` [9n], in data set [1], the “inhibition of cap-dependent translation in vitro (in words)” value is “comparable potency to SDS-1-021”. In addition, the “rank among the top 15 cytotoxic rocaglates” value in the data set on NIH/3T3 cells worked out at 15th.

Broadly, the pIC50 is −log10 of the IC50, conventionally taken in molar units. Regarding `COC(=O)[C@@H]1[C@@H](c2ccccc2)[C@]2(c3ccc(OC)cc3)Oc3cc(OC)cc(OC)c3[C@@]23N=C(C)N[C@@]13O` [(−)-9b], the pIC50 in data set [2] is 8.46.

The values are drawn from patent publication US11279708B2, “Amidino- and amino-rocaglates as novel translation inhibitors and anticancer agents” (priority 2019, dated 2022).
